According to patent publication US20260035339A1, “TETRAHYDRONAPHTHALENE DERIVATIVE” (ATRANSEN PHARMA LTD., priority 2022, published 2026):

How the values were obtained:
[1] = tested on: Human breast cancer cells MCF7; assay: BNCT-enhancing effect by L-BPA confinement using cultured cells (colony formation after neutron irradiation); type: cell-based; details: MCF7 loaded with 100 μM L-[10B]BPA, then 10 μM compound for 60 minutes; neutron rays 5 MW for 4 minutes
Description: Human breast cancer cells MCF7 were plate-cultured in an RPMI medium for 48 hours, then replaced with an RPMI medium containing 100 μM of L-[10B]BPA, and cultured for 15 minutes to allow the L-[10B]BPA to be taken up in the cells. After washing with HBSS, the cells were cultured in an RPMI medium for 60 minutes, and after further washing with HBSS, the cells were peeled off and stored in HBSS at room temperature for 1.5 hours ((−) in FIG. 3A). L-BPA was taken up in the cells, washed with HBSS and then cultured in an RPMI medium containing the compound of Example 1-1 (10 μM) obtained in the present invention for 60 minutes, and after further washing with HBSS, the cells were peeled off and stored in HBSS at room temperature for 1.5 hours ((+) in FIG. 3A). The cells were cultured in an RPMI medium containing no L-[10B]BPA for 15 minutes, and after washing with HBSS, the cells were peeled off and stored in HBSS at room temperature for 1.5 hours ((No BPA Hot control) in FIG. 3A). These three cell samples were irradiated with neutron rays (5 MW for 4 minutes). After irradiation, in order to measure viable cells, the cells were plate-cultured and the number of colonies generated after 2 weeks was measured. The number of viable cells was evaluated as surviving fraction (%) (FIG. 3A).

[2] = molecular target: human LAT1 (Homo sapiens, UniProt Q01650); assay: [14C]L-leucine uptake inhibition test using human-LAT1 stably expressing HEK293 cell line; type: cell-based; design: having full-length cDNA of human LAT1 or LAT2 inserted under a promoter of CMV; expressed in transfected cells; key to Assay Data: degree of [14C]L-leucine uptake inhibition compared with BCH: a test compound having a higher inhibitory effect than BCH is denoted by A; a test compound having the same inhibitory effect as BCH is denoted by B; a test compound having a lower inhibitory effect than BCH is denoted by C
Sequence of human LAT1 (Q01650 whole entry): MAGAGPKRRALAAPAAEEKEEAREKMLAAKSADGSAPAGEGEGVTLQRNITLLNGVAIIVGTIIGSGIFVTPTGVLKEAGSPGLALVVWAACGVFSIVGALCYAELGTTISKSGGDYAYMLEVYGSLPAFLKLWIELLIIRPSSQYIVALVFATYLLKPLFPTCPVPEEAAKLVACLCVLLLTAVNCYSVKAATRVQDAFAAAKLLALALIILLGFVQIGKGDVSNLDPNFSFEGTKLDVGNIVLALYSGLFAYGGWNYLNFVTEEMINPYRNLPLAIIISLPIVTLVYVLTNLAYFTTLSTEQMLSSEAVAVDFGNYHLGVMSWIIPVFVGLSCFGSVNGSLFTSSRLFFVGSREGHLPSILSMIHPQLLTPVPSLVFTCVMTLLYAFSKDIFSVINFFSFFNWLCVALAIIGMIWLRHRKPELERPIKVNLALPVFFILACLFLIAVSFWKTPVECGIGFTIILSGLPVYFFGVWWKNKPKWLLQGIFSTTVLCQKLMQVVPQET
Sequence of human LAT1 (P08195 102-630 partner): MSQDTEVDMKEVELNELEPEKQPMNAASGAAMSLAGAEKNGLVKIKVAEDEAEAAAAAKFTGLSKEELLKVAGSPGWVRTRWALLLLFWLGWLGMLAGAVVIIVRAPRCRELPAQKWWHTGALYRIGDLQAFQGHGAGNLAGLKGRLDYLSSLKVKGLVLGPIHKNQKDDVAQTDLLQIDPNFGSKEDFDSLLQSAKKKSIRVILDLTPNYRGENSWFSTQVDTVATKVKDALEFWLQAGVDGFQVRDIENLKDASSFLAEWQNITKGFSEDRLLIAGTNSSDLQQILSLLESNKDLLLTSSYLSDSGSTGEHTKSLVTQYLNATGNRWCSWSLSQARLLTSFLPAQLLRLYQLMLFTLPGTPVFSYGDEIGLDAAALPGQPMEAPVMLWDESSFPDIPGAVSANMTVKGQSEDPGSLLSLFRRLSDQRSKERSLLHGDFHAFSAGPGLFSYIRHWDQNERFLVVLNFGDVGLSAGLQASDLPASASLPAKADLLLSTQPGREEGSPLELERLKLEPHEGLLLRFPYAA
Outline: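 HEK293 cells stably expressing human LAT1, preincubated 10 min in Na^+-free HBSS, then exposed 1 min to 1 μM [14C]L-leucine with racemic compound (0.1, 1.0, 10, 0 μM). Lysate radioactivity counted by scintillation and normalized to protein as uptake per mg protein per minute; graded against BCH.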

suppression rate of labeled leucine uptake ([2]; 0.1 μM of the compound (racemic form)): about 70% | Assay Data: degree of [14C]L-leucine uptake inhibition compared with BCH ([2]; compound (racemic form) and BCH at 0.1, 1.0, 10 μM, 1 μM [14C]L-leucine, 1 minute, Na+-free HBSS): A | IC50 ([2]; racemic form, 1 μM [14C]L-leucine, 1 minute, read-out: 50% suppression concentration (racemic form), [14C]L-leucine uptake): ≤ 100 nM | LAT1 inhibitory effect, compounds singled out (in words) ([2]; same test as Table 1): particularly remarkable effects
Structure (SMILES): NC1(C(=O)O)CCc2ccc(Oc3ccc4ccccc4c3)cc2C1 (centres unmarked) [Example 1-1, 2-carboxy-7-(naphthalene-2-yloxy)-1,2,3,4-tetrahydronaphthalene-2-aminium chloride]
BNCT-enhancing effect (surviving fraction after neutron irradiation) [1]: large BNCT-enhancing effect
